Results taken from patent US7133717B2, “Tissue electroperforation for enhanced drug delivery and diagnostic sampling” (Johnson & Johnson Consumer Companies, Inc., priority 1999, dated 2006).

How the values were obtained:
Assay type in all cases: in vivo
Conditions in all cases: two pigs
[1] = Electroperforation (25 pores/cm^2) followed by passive diffusion of erythropoietin for transdermal delivery, plasma erythropoietin by ELISA
Experimental: (§1) To evaluate the pore transport pathway created through the stratum corneum of the skin by electroperforation, an in vivo experiment was conducted on the back skin of Yorkshire pigs (female, ˜12 kg) using an electrosurgery apparatus (Surgitron™, Ellman International, Inc., Hewlett, N.Y.). The pigs were immobilized with appropriate anesthetics and analgesics. Electrofulguration current was used with a fine wire electrode (0.26 mm in diameter) and power output setting at between scale 3 to 10. A small pore was created on the surface of the skin by carefully moving the electrode towards the skin until the tip of the electrode almost touched the skin. The electrode was quickly moved away from the skin as soon as an electric arc appeared in the gap between the electrode tip and the skin surface.
An electroperforation procedure was conducted in two pigs similar to that in Example 3, followed by passive diffusion of erythropoietin (20 kU/ml, Procrit®, Ortho Biotech, Inc., Raritan, N.J.) at the treatment site. There were 25 pores/cm^2 generated with electroperforation on each pig. The drug chamber based over the electroperforation-treated skin area contained 0.5 ml of erythropoietin solution. Blood samples were collected for erythropoietin analysis with an ELISA method. The erythropoietin delivery procedure was carried out for 7 hours. […]

pigs [2] = assay: Electroperforation (39 pores/cm^2) followed by passive diffusion of insulin for transdermal delivery, blood glucose monitoring
Experimental: as §1
The electroperforation procedure described in Example 1 was conducted in two pigs with a pore density of 39 pores/cm^2 of the skin and subsequently followed by transdermal insulin delivery with passive diffusion. An insulin-containing chamber was immediately placed onto the electroperforation-treated skin. […] Blood glucose of the pigs was monitored by obtaining blood samples of the ear vein, which were analyzed using two blood glucose analyzers separately to assure the accuracy (One Touch® Basic, LifeScan, Inc., Milpitas, Calif.).

pigs [3] = assay: Electroperforation (9 pores/cm^2) followed by passive diffusion and iontophoresis of insulin for transdermal delivery, blood glucose monitoring
Experimental: as §1
An electroperforation procedure was conducted in two pigs similar with a pore density of 9 pores/cm^2 on the skin and subsequently was followed by transdermal insulin delivery. The purpose of using a lower pore density in this experiment was to examine the effect of pore number (e.g., the extent of the transport pathway available) to transdermal insulin delivery. The same insulin-containing chamber and drug application procedures were used in this experiment as those in the Example 2. […]

| Substance | plasma erythropoietin concentrations ([1]; one day after the delivery experiment) | plasma erythropoietin concentration ([1]; passive diffusion, 0.5 ml of 20 kU/ml solution, during the 7 hour delivery until chambers removed) | blood glucose reduction (pigs [2]; 0.5 ml insulin solution 100 U/ml, contact area 2.3 cm^2) | blood glucose levels (pigs [2]; from the onset of insulin delivery) | blood glucose reduction (pigs [3]; during iontophoresis, 4 mA DC, two 30-minute sections at 1.5 hour and 3 hour) | blood glucose levels (pigs [3]; first 1.5 hours, passive diffusion only) |
| --- | --- | --- | --- | --- | --- | --- |
| erythropoietin | still above the endogenous basal level | progressive increase | – | – | – | – |
| insulin | – | – | greater than 50 % of the basal level | declined rather quickly | rapid blood glucose reduction | did not decline |
